Experimental findings from patent US8597700B2, “Method of treating osteoporosis with extract of Dioscorea sp” (National Yang-Ming University, priority 2002, dated 2013) are described below.

One experiment concerns osteoprogenitor cells. The experiment is described as follows: Proliferative response of osteoprogenitor cells of mice (MTT assay). The class given is cell-based, C3H/HeN mice. Conditions: 0.01 and 0.1 μg/ml, 72 hours. On the procedure: Under sterile conditions, femoral bones of the SPF grade of C3H/HeN mouse were obtained and injected with DMEM/F12. The bone marrow cells were flushed out and filtered through No. 53 sterile nylon mesh. The single cell suspension obtained was mixed with DMEM/F12 culture medium containing 15% FCS to adjust the concentration of the cells.
The cells were cultured in DMEM/F12 medium containing 15% FCS, 50 μg/ml ascorbic acid, 10 mM sodium β glycerophosphate and 10 nM dexamethasone in a T-flask for 6 days. The culture medium was renewed every 3 days. The cell concentration was 10^6 cells/cm^2. On the 6th day, the suspended cells and culture medium were drawn out. The adhering cell layer was washed with 1×PBS that had been warmed to room temperature, and then treated with 0.01% EDTA at 37° C. for 5 to 10 minutes. […]
The cells obtained in preparatory step 4 were dispersed using a 22 G gauge needle and suspended in DMEM/F12 medium containing 15% FCS, 50 μg/ml ascorbic acid, 10 mM sodium β-glycerophosphate and 10 nM dexamethazone to form a concentration of 4.5×10^4 cells/ml. […] 1 mg/ml MTT solution was added in each well and reacted for 4 hours MTT lysis buffer (20% SDS-50% DMF) was added in each well in the amount of 150 μl/well and reacted for 16 hours, and the absorbance was measured at O.D. 570 nm for the resultant cell suspension in each well.
(Formazan colour is commonly taken as a measure of viable cells.)

In experiment [1] the test system is bone marrow cells of C3H mice. Description: Proliferation (MTT) and morphological changes of bone marrow cells in the presence of EGF. The class given is cell-based, C3H/HeN mice. As to the method:
(§1) Under sterile conditions, SPF grade C3H/HeN mice were sacrificed and their femoral bones were injected with a liquid culture of DMEM/F12 to flush out the bone marrow cells. The cells were filtered through sterile No. 53 nylon mesh. The single cell suspension so obtained was mixed with DMEM/F12 culture medium containing N2 to adjust to the proper concentration.
1×10^4 cells/well bone marrow cells of mice obtained in preparatory step 3 were seeded in a 96-well microplate containing DMEM/F12 culture medium with N2 and 10 ng/ml EGF and incubated in a 5% CO2 incubator at 37° C for 24 hrs. The extract and DHEA were added into different wells respectively. Wells containing pure culture medium into which no methanol extract and DHEA were added, and which were subjected to the same incubation procedure, were used as […]. In addition, for use as positive control, the same procedure as that for control was repeated except that 50 ng/ml EGF was used. The proliferation responses were measured by a MTT assay. In accordance with the MTT assay, each of the wells was added with 1 mg/ml MTT solution and, after 4 hours of reaction, MTT lysis buffer (20% SDS-50% DMF) was added thereinto in an amount of 150 μl/well. The resultant mixture was allowed to be reacted for 16 hours. The absorbance was measured at O.D. 570 nm.

In experiment [2] the test system is bone marrow cells of mice. Description: Proliferation (MTT) and morphologic change of bone marrow cells in the presence of GM-CSF. The class given is cell-based. As to the method: as §1
1×10^4 cells/well bone marrow cells of mice obtained in preparatory step 3 were seeded in each well of the 96-well microplate, cultured in DMEM/F 12 culture medium containing N2, and 4 ng/ml mGM-CSF. Methanol extracts of Dioscorea sp. with different concentrations were respectively added into the resultant cultured cells in the different wells. The resultant methanol extract containing cultured cells in different wells were then incubated in a 5% CO2 incubator at 37° C. for 14 days. The cells cultured in DMEM/F12 medium containing N2 and 20 ng/ml mGM-CSF is used as positive control. A MTT assay was performed. In this respect, 1 mg/ml MTT solution was added in each well so as to react with the cultured cells therein for 4 hours. MTT lysis buffer (20% SDS-50% DMF) was added in a n amount of 150 μl/well. The resultant mixture was allowed to react for 16 hours. The absorbance was measured at O.D. 570 nm.

Marks after values point to notes of the source that are not given here.

`C[C@]12CC[C@H](O)CC1=CC[C@@H]1[C@@H]2CC[C@]2(C)C(=O)CC[C@@H]12` [DHEA, Dehydroepiandrosterone]: the “proliferation of the osteoprogenitor cells” value in the experiment with osteoprogenitor cells is given as “no effect”. Also, the “Proliferation Index” value in experiment [1] (0.0001 μg/ml) is on record as 0.99; in experiment [1] (0.001 μg/ml), 0.64; in experiment [1] (0.01 μg/ml), 0.65; in experiment [1] (0.1 μg/ml), 0.67; in experiment [1] (1 μg/ml) it was 0.70; in experiment [2] (0.0001 μg/ml), 0.99. Further, the “Proliferation Index” value in experiment [2] (0.001 μg/ml) is on record as 1.15; in experiment [2] (0.01 μg/ml), 1.04; in experiment [2] (0.1 μg/ml), 1.13; in experiment [2] (1 μg/ml), 1.11; in experiment [2] (10 μg/ml) it was 1.19*. Moreover, in experiment [2] (20-week old adult mouse bone marrow cells), the “differentiation of bone marrow cells” value is on record as “enhancing cell differentiation”.
